Key:
[1] = molecular target: T1, ADP/ATP translocase 2 (Homo sapiens) (UniProt P05141); assay: Inhibition of ANT2 in human HeLa cells assessed as cell survival at 50 uM incubated for 5 days by crystal violet staining based assay
T1 sequence (whole entry): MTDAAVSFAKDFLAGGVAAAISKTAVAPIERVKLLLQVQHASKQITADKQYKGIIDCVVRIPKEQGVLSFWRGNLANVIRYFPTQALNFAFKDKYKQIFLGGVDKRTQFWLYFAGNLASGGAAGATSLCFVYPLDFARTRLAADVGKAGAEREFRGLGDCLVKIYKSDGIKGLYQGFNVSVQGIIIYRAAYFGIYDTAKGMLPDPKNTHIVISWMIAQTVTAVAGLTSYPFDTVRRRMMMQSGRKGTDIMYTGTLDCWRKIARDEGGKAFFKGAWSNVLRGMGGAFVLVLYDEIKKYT

[2] = Cytotoxicity against mouse NIH/3T3 cells assessed as cell survival at 50 uM incubated for 5 days by crystal violet staining based assay; parameters: species or system NIH3T3; settings: read-out: Survival
[3] = molecular target: T1, ADP/ATP translocase 2 (Homo sapiens); assay: Inhibition of ANT2 in human HeLa cells assessed as growth inhibition at 50 uM incubated for 5 days by crystal violet staining based assay; format: cell-based

| Compound | Survival [1] [%] | viability at 120 h, 50 µM [2] [%] | growth inhibition (GI) [3] [%] |
| --- | --- | --- | --- |
| CC(C)CC(=O)C1C(=O)c2ccccc2C1=O | 5 | 40 | 79 |
| O=C(CC(=O)C1C(=O)c2ccccc2C1=O)c1ccccc1 |  |  | 84 |

From ChEMBL document CHEMBL3881531, “ANT2 inhibitor compounds and methods of use thereof” (2009)
